Experimental data published in US10023559B2 (Hoffmann-La Roche Inc., priority 2014, dated 2018).

What was measured:
rat TAAR1 = rat TAAR1 (Rattus norvegicus (Rat), UniProt Q923Y9); test: Radioligand binding assay on rat TAAR1; details: read-out: Ki(μM) rat; rat TAAR1, HEK-293 membranes, second value of cell pair mouse/rat
Procedure: Membrane Preparation and Radioligand Binding.
HEK-293 cells stably expressing rat TAAR1 were maintained at 37° C. and 5% CO2 in DMEM high glucose medium, containing fetal calf serum (10%, heat inactivated for 30 min at 56° C.), penicillin/streptomycin (1%), and 375 μg/ml geneticin (Gibco). Cells were released from culture flasks using trypsin/EDTA, harvested, washed twice with ice-cold PBS (without Ca^2+ and Mg^2+), pelleted at 1,000 rpm for 5 min at 4° C., frozen and stored at −80° C. Frozen pellets were suspended in 20 ml HEPES-NaOH (20 mM, pH 7.4) containing 10 mM EDTA and homogenized with a Polytron (PT 6000, Kinematica) at 14,000 rpm for 20 s. The homogenate was centrifuged at 48,000×g for 30 min at 4° C. Subsequently, the supernatant was removed and discarded, and the pellet resuspended in 20 ml HEPES-NaOH (20 mM, pH 7.4) containing 0.1 mM EDTA using the Polytron (20 s at 14,000 rpm). This procedure was repeated and the final pellet resuspended in HEPES-NaOH containing 0.1 mM EDTA and homogenized using the Polytron. Typically, aliquots of 2 ml membrane portions were stored at −80° C. With each new membrane batch the dissociation constant (Kd) was determined via a saturation curve. […] Nonspecific binding was defined as the amount of [H]—(S)-4-[(ethyl-phenyl-amino)-methyl]-4,5-dihydro-oxazol-2-ylamine bound in the presence of 10 M unlabeled ligand. All compounds were tested at a broad range of concentrations (10 pM to 10 μM) in duplicates. […] The 96 deep well plates were incubated for 1 hr at 4° C. Incubations were terminated by rapid filtration through Unifilter-96 plates (Packard Instrument Company) and glass filters GF/C (Perkin Elmer) presoaked for 1 hr in polyethylenimine (0.3%) and washed 3 times with 1 ml of cold binding buffer. After addition of 45 μl of Microscint 40 (PerkinElmer) the Unifilter-96 plate was sealed and after 1 hr the radioactivity counted using a TopCount Microplate Scintillation Counter (Packard Instrument Company).

mouse TAAR1 = mouse TAAR1 (Mus musculus (Mouse), UniProt Q923Y8); test: Radioligand binding assay on mouse TAAR1
Sequence of mouse TAAR1 (Q923Y8 whole entry): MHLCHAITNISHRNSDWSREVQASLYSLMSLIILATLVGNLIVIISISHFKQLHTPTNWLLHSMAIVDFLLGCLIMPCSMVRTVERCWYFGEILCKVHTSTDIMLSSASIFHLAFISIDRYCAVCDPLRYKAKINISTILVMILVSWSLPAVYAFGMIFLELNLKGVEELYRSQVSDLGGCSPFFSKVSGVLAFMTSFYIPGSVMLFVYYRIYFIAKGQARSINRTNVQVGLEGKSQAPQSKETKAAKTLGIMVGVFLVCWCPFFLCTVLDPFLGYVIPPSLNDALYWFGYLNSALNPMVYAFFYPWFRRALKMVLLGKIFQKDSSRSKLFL

Sequence of rat TAAR1 (Q923Y9 whole entry): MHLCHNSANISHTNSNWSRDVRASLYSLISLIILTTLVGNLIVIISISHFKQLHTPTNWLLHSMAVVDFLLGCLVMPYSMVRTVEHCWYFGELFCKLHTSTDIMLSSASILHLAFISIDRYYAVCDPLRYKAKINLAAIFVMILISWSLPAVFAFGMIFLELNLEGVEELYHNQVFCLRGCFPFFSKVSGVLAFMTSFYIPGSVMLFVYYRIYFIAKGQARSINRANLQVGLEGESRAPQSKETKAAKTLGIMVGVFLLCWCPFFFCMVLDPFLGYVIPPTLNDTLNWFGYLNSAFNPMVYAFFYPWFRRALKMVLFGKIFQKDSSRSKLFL

| Structure (SMILES) | Ki (rat TAAR1) | Ki (mouse TAAR1) |
| --- | --- | --- |
| CO[C@@H]1CN[C@@H]1Cc1ccccc1 [Example 100, (2R,3R)-2-benzyl-3-methoxyazetidine] | 0.151 µM | 317 nM |
| O=C(Nc1ccc(C[C@@H]2CCN2)cc1)c1ccc(Cl)nc1 [Example 79, N-[4-[[(2R)-azetidin-2-yl]methyl]phenyl]-6-chloro-pyridine-3-carboxamide] | 0.348 µM | 10 nM |
| O=C(Nc1ccc(OC2CNC2)cc1)c1ccnc(C(F)(F)F)c1 [Example 5, N-(4-(azetidin-3-yloxy)phenyl)-2-(trifluoromethyl)isonicotinamide] |  | 12.3 nM |
| O=C(Nc1ccc(Cl)cc1)c1ccc(OC2CNC2)cc1 [Example 23, 4-(azetidin-3-yloxy)-N-(4-chlorophenyl)benzamide] | 0.038 µM | 9.9 nM |
| CCc1n[nH]c(C(=O)Nc2ccc(OC3CNC3)cc2)c1C [Example 11, N-(4-(azetidin-3-yloxy)phenyl)-3-ethyl-4-methyl-1H-pyrazole-5-carboxamide] | 0.0808 µM | 64.5 nM |
| O=C(Nc1ccc(OC2CNC2)cc1)c1cc(C(F)(F)F)n[nH]1 [Example 24, N-(4-(azetidin-3-yloxy)phenyl)-3-(trifluoromethyl)-1H-pyrazole-5-carboxamide] | 0.0701 µM | 32.8 nM |
| O=C(Nc1ccc(OC2CNC2)cc1)c1ccc(Cl)cc1 [Example 4, N-(4-(azetidin-3-yloxy)phenyl)-4-chlorobenzamide] | 0.0087 µM | 1.1 nM |
| Cc1cc(C(=O)Nc2cc(F)c(C=C3CNC3)c(F)c2)nc(C(F)(F)F)n1 [Example 82, N-(4-(azetidin-3-ylidenemethyl)-3,5-difluorophenyl)-6-methyl-2-(trifluoromethyl)pyrimidine-4-carboxamide] | 0.0055 µM | 27.8 nM |
| CO[C@H]1CN[C@H]1Cc1ccccc1 [Example 94, (2S,3S)-2-benzyl-3-methoxyazetidine] | 0.767 µM | 4050 nM |
| COc1ccc(C[C@H]2NC[C@H]2F)cc1 [Example 98, (2R,3R)-3-fluoro-2-(4-methoxybenzyl)azetidine] |  | 200 nM |
| Cn1nc(C(=O)Nc2ccc(OC3CNC3)cc2)c(Cl)c1C(F)(F)F [Example 43, N-[4-(azetidin-3-yloxy)phenyl]-4-chloro-1-methyl-5-(trifluoromethyl)pyrazole-3-carboxamide] | 0.0435 µM | 6.8 nM |
| CC(C)c1cc(C(=O)Nc2ccc(OC3CNC3)cc2)[nH]n1 [Example 12, N-(4-(azetidin-3-yloxy)phenyl)-3-isopropyl-1H-pyrazole-5-carboxamide] | 0.0927 µM | 137 nM |
| O=C(Nc1ccc(OC2CNC2)cc1F)c1cnc(C2CC2)nc1 [Example 38, N-[4-(azetidin-3-yloxy)-2-fluoro-phenyl]-2-cyclopropyl-pyrimidine-5-carboxamide] | 0.853 µM | 35.1 nM |
| CC(C)c1cc(C(=O)Nc2ccc(C[C@H]3NC[C@H]3F)cc2)[nH]n1 [Example 125, N-(4-(((2R,3R)-3-fluoroazetidin-2-yl)methyl)phenyl)-3-isopropyl-1H-pyrazole-5-carboxamide] | 0.466 µM | 16 nM |
| O=C(Nc1ccc(OC2CNC2)cc1)c1cnc(C2CC2)nc1 [Example 14, N-(4-(azetidin-3-yloxy)phenyl)-2-cyclopropylpyrimidine-5-carboxamide] | 0.1 µM | 14.9 nM |
| CCOc1ccc(C(=O)Nc2ccc(OC3CNC3)cc2)nn1 [Example 76, N-[4-(azetidin-3-yloxy)phenyl]-6-ethoxy-pyridazine-3-carboxamide] | 0.167 µM | 54 nM |
| FC(F)(F)c1cnc(Nc2ccc(OC3CNC3)cc2)nc1 [Example 9, N-(4-(azetidin-3-yloxy)phenyl)-5-(trifluoromethyl)pyrimidin-2-amine] | 0.105 µM | 47.7 nM |
| O=C(NCc1ccc(F)cc1)c1ccc(OC2CNC2)cc1 [Example 18, 4-(azetidin-3-yloxy)-N-[(4-fluorophenyl)methyl]benzamide] | 1.63 µM | 109 nM |
| O=C(Nc1ccc(C[C@@H]2CCN2)cc1)c1cnc(C(F)(F)F)nc1 [Example 78, N-[4-[[(2R)-azetidin-2-yl]methyl]phenyl]-2-(trifluoromethyl)pyrimidine-5-carboxamide] | 0.269 µM | 29.3 nM |
| F[C@H]1CN[C@H]1Cc1ccccc1 [Example 90, (2S,3S)-2-benzyl-3-fluoroazetidine] | 0.274 µM | 4380 nM |
| CCc1ncc(C(=O)Nc2ccc(OC3CNC3)cc2)cn1 [Example 15, N-[4-(azetidin-3-yloxy)phenyl]-2-ethyl-pyrimidine-5-carboxamide] | 0.261 µM | 57.1 nM |
| O=C(Nc1ccc(Cl)nc1)c1ccc(OC2CNC2)cc1Cl [Example 53, 4-(azetidin-3-yloxy)-2-chloro-N-(6-chloro-3-pyridyl)benzamide] | 2.43 µM | 55.2 nM |
| O=C(Nc1ccc(SC2CNC2)cc1)c1[nH]nc(C2CC2)c1Cl [Example 35, N-[4-(azetidin-3-ylsulfanyl)phenyl]-4-chloro-3-cyclopropyl-1H-pyrazole-5-carboxamide] | 0.0466 µM | 3.1 nM |
| COc1cc(C(=O)Nc2ccc(OC3CNC3)cc2)cc(C#N)n1 [Example 7, N-(4-(azetidin-3-yloxy)phenyl)-2-cyano-6-methoxyisonicotinamide] |  | 5.6 nM |
| COc1ccc(C[C@@H]2NC[C@@H]2F)cc1 [Example 96, (2S,3S)-3-fluoro-2-(4-methoxybenzyl)azetidine] |  | 2760 nM |
| COc1ccc(C[C@@H]2NC[C@H]2F)cc1 [Example 97, (2S,3R)-3-fluoro-2-(4-methoxybenzyl)azetidine] |  | 1630 nM |
| O=C(Nc1ccc(OC2CNC2)c(F)c1)c1cnc(C2CC2)nc1 [Example 27, N-[4-(azetidin-3-yloxy)-3-fluoro-phenyl]-2-cyclopropyl-pyrimidine-5-carboxamide] |  | 15.5 nM |
| COc1ccc(C[C@H]2NC[C@@H]2F)cc1 [Example 99, (2R,3S)-3-fluoro-2-(4-methoxybenzyl)azetidine] |  | 200 nM |
| O=C(Nc1ccc(OC2CNC2)cc1)c1cnc(C(F)(F)F)nc1 [Example 6, N-(4-(azetidin-3-yloxy)phenyl)-2-(trifluoromethyl)pyrimidine-5-carboxamide] |  | 19.5 nM |

Now from value to compound:

| Ki (rat TAAR1) | Ki (mouse TAAR1) | Structure (SMILES) |
| --- | --- | --- |
| 0.0071 µM | 6.4 nM | COc1cc(C(=O)Nc2ccc(CC3(F)CNC3)cc2)nc(C(F)(F)F)n1 [Example 68, 6 N-[4-[(3-fluoroazetidin-3-yl)methyl]phenyl]-6-methoxy-2-(trifluoromethyl)pyrimidine-4-carboxamide] |
| 1.16 µM | 9.7 nM | CCOc1ccc(C(=O)Nc2ccc(C[C@H]3NC[C@H]3F)cc2)cn1 [Example 122, 6-ethoxy-N-(4-(((2R,3R)-3-fluoroazetidin-2-yl)methyl)phenyl)nicotinamide] |
| 0.0081 µM | 13.1 nM | O=C(Nc1ccc(SC2CNC2)cc1)Nc1ccc(C(F)(F)F)cc1 [Example 110, 1-[4-(azetidin-3-ylsulfanyl)phenyl]-3-[4-(trifluoromethyl)phenyl]urea] |
| 0.0016 µM | 3.7 nM | O=C(Nc1ccc(C=C2CNC2)cc1)Nc1ccc(C(F)(F)F)cc1 [Example 116, 1-[4-(azetidin-3-ylidenemethyl)phenyl]-3-[4-(trifluoromethyl)phenyl]urea] |
| 0.0187 µM | 4 nM | O=C(Nc1ccc(OC2CNC2)cc1)c1cnc(OCC(F)(F)F)cn1 [Example 77, N-[4-(azetidin-3-yloxy)phenyl]-5-(2,2,2-trifluoroethoxy)pyrazine-2-carboxamide] |
| 0.023 µM | 2.6 nM | O=C(Nc1ccc(C=C2CNC2)cc1)c1ccc(Cl)nc1 [Example 65, N-[4-(azetidin-3-ylidenemethyl)phenyl]-6-chloro-pyridine-3-carboxamide] |
| 0.0106 µM | 5.2 nM | O=C(Nc1ccc(OC2CNC2)cc1)c1cnc(C(F)(F)F)cn1 [Example 75, N-[4-(azetidin-3-yloxy)phenyl]-5-(trifluoromethyl)pyrazine-2-carboxamide] |
| 0.0468 µM | 3.9 nM | CCc1n[nH]c(C(=O)Nc2ccc(OC3CNC3)cc2)c1Br [Example 47, N-[4-(azetidin-3-yloxy)phenyl]-4-bromo-3-ethyl-1H-pyrazole-5-carboxamide] |
| 0.0134 µM | 50.9 nM | Cc1cc(C(=O)Nc2ccc(C=C3CNC3)c(F)c2)nc(C(F)(F)F)n1 [Example 85, N-(4-(azetidin-3-ylidenemethyl)-3-fluorophenyl)-6-methyl-2-(trifluoromethyl)pyrimidine-4-carboxamide] |
| 0.0385 µM | 61.4 nM | FC(F)(F)c1cnc(Nc2ccc(C=C3CNC3)cc2)nc1 [Example 63, N-[4-(azetidin-3-ylidenemethyl)phenyl]-5-(trifluoromethyl)pyrimidin-2-amine] |
| 0.165 µM | 8.5 nM | O=C(Nc1ccc(SC2CNC2)cc1)c1cnc(C2CC2)nc1 [Example 44, N-[4-(azetidin-3-ylsulfanyl)phenyl]-2-cyclopropyl-pyrimidine-5-carboxamide] |
| 0.0615 µM | 15 nM | O=C(Nc1ccc(CC2CNC2)cc1)c1ccc(Cl)nc1 [Example 64, N-[4-(azetidin-3-ylmethyl)phenyl]-6-chloro-pyridine-3-carboxamide] |
| > 1.5 µM | 55.4 nM | O=C(Nc1ccc(C[C@H]2NC[C@H]2F)cc1)c1cnc(C2CC2)nc1 [Example 124, 2-cyclopropyl-N-(4-(((2R,3R)-3-fluoroazetidin-2-yl)methyl)phenyl)pyrimidine-5-carboxamide] |
| 0.156 µM | 160 nM | COc1ccc(NC(=O)Nc2ccc(CC3CNC3)cc2)cc1 [Example 114, 1-[4-(azetidin-3-ylmethyl)phenyl]-3-(4-methoxyphenyl)urea] |
| 0.0182 µM | 3 nM | O=C(Nc1ccc(CC2(F)CNC2)cc1)c1ccc(Cl)nc1 [Example 54, 6-chloro-N-[4-[(3-fluoroazetidin-3-yl)methyl]phenyl]pyridine-3-carboxamide] |
